Data published in the kinase profiling compilation of Christmann-Franck et al. (2016).

Columns and labels:
Experiment in all cases: KINOMEscan competition binding
MAPK12 (human) = MAPK12 (human) (UniProt P53778); conditions: compound 10.0 µM
PIK3CG (human) = PIK3CG (human) (UniProt P48736); conditions: compound 10.0 µM
[1] = test system: RET (human), P07949 [M918T]; conditions: compound 10.0 µM
WEE2 (human) = WEE2 (human) (UniProt P0C1S8); conditions: compound 10.0 µM
EGFR (human) = EGFR (human) (UniProt P00533); conditions: compound 10.0 µM
FGFR3 (human) = FGFR3 (human) (UniProt P22607); conditions: compound 10.0 µM
CDK8 (human) = CDK8 (human) (UniProt P49336); conditions: compound 10.0 µM
TLK2 (human) = TLK2 (human) (UniProt Q86UE8); conditions: compound 10.0 µM
CHEK2 (human) = CHEK2 (human) (UniProt O96017); conditions: compound 10.0 µM
LYN (human) = LYN (human) (UniProt P07948); conditions: compound 10.0 µM
CAMK2A (human) = CAMK2A (human) (UniProt Q9UQM7); conditions: compound 10.0 µM
[2] = test system: KIT (human), P10721 [V559D/V654A]; conditions: compound 10.0 µM
MAPK14 (human) = MAPK14 (human) (UniProt Q16539); conditions: compound 10.0 µM
TNK1 (human) = TNK1 (human) (UniProt Q13470); conditions: compound 10.0 µM
BMPR2 (human) = BMPR2 (human) (UniProt Q13873); conditions: compound 10.0 µM
NEK5 (human) = NEK5 (human) (UniProt Q6P3R8); conditions: compound 10.0 µM
TESK1 (human) = TESK1 (human) (UniProt Q15569); conditions: compound 10.0 µM
FER (human) = FER (human) (UniProt P16591); conditions: compound 10.0 µM
MLTK (human) = MLTK (human) (UniProt Q9NYL2); conditions: compound 10.0 µM
TGFBR1 (human) = TGFBR1 (human) (UniProt P36897); conditions: compound 10.0 µM
MAP4K2 (human) = MAP4K2 (human) (UniProt Q12851); conditions: compound 10.0 µM
CAMK1D (human) = CAMK1D (human) (UniProt Q8IU85); conditions: compound 10.0 µM
EPHA6 (human) = EPHA6 (human) (UniProt Q9UF33); conditions: compound 10.0 µM
FES (human) = FES (human) (UniProt P07332)
MUSK (human) = MUSK (human) (UniProt O15146); conditions: compound 10.0 µM
TGFBR2 (human) = TGFBR2 (human) (UniProt P37173); conditions: compound 10.0 µM
IKBKB (human) = IKBKB (human) (UniProt O14920); conditions: compound 10.0 µM
PAK4 (human) = PAK4 (human) (UniProt O96013); conditions: compound 10.0 µM
[3] = test system: ABL1 (human), P00519 [M351T]; conditions: compound 10.0 µM
MKNK2 (human) = MKNK2 (human) (UniProt Q9HBH9); conditions: compound 10.0 µM
NEK7 (human) = NEK7 (human) (UniProt Q8TDX7); conditions: compound 10.0 µM
PRKD1 (human) = PRKD1 (human) (UniProt Q15139); conditions: compound 10.0 µM
INSR (human) = INSR (human) (UniProt P06213); conditions: compound 10.0 µM
ROS1 (human) = ROS1 (human) (UniProt P08922); conditions: compound 10.0 µM
[4] = test system: KIT (human), P10721 [D816V]; conditions: compound 10.0 µM
MAPK4 (human) = MAPK4 (human) (UniProt P31152); conditions: compound 10.0 µM
LCK (human) = LCK (human) (UniProt P06239); conditions: compound 10.0 µM
MAP3K3 (human) = MAP3K3 (human) (UniProt Q99759); conditions: compound 10.0 µM
MST4 (human) = MST4 (human) (UniProt Q9P289); conditions: compound 10.0 µM
SRPK2 (human) = SRPK2 (human) (UniProt P78362); conditions: compound 10.0 µM
LIMK1 (human) = LIMK1 (human) (UniProt P53667); conditions: compound 10.0 µM
[5] = test system: EGFR (human), P00533 [747-751 del / S ins]; conditions: compound 10.0 µM
Chain of EGFR (human), P00533 [747-751 del / S ins] (P00533 whole entry, looked up, stated change not applied): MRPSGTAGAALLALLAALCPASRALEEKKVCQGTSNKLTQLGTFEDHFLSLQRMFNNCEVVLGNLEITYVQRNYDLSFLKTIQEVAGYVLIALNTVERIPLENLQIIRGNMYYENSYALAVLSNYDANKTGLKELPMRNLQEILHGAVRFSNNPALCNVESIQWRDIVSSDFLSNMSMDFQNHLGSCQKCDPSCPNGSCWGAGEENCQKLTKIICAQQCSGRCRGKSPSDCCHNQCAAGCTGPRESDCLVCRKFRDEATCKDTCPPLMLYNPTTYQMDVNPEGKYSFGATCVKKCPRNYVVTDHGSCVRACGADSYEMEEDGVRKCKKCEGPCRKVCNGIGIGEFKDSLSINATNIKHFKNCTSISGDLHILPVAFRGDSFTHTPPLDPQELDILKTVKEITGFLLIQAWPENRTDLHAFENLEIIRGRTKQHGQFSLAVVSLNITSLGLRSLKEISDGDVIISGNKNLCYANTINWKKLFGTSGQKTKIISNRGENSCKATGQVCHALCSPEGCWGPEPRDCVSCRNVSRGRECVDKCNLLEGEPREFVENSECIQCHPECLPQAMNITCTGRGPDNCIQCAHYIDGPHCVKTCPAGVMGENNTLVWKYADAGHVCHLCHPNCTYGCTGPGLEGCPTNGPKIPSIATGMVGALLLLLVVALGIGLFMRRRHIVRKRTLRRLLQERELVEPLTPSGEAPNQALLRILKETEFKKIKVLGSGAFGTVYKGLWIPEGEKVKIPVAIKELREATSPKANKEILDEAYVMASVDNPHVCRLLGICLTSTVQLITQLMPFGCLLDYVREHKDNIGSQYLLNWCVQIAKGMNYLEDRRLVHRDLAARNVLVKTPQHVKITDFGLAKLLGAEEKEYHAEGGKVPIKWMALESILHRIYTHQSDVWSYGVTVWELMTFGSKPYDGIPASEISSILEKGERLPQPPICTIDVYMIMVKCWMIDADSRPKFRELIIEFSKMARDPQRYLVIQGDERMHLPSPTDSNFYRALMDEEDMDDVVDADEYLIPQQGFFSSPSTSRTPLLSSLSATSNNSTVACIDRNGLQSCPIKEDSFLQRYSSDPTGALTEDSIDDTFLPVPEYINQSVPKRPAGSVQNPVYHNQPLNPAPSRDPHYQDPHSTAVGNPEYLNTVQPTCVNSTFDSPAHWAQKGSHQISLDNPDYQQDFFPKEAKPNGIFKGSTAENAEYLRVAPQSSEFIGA

Chain of FES (human) (P07332 whole entry, looked up): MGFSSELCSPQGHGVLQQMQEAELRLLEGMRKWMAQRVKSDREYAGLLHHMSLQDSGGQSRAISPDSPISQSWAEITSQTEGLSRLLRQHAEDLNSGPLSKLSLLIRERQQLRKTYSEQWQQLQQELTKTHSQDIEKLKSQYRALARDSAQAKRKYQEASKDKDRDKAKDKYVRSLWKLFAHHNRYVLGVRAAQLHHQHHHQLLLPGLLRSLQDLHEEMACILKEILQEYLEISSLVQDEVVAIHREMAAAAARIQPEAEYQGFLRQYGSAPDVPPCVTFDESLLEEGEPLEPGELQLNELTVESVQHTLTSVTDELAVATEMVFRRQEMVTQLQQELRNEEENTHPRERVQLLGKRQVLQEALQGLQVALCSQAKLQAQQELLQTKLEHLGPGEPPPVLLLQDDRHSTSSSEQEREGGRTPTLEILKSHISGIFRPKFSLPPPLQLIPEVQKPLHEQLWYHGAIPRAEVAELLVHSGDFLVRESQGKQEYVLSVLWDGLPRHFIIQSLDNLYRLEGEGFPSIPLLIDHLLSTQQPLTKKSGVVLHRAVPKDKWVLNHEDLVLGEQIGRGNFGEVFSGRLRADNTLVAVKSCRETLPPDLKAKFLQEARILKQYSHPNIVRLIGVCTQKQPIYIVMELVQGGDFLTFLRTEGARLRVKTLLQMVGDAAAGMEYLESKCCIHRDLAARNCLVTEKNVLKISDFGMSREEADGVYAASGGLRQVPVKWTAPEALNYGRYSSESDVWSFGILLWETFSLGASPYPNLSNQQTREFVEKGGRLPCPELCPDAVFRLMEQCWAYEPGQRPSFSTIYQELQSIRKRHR
Chain of EPHA6 (human) (Q9UF33 whole entry, looked up): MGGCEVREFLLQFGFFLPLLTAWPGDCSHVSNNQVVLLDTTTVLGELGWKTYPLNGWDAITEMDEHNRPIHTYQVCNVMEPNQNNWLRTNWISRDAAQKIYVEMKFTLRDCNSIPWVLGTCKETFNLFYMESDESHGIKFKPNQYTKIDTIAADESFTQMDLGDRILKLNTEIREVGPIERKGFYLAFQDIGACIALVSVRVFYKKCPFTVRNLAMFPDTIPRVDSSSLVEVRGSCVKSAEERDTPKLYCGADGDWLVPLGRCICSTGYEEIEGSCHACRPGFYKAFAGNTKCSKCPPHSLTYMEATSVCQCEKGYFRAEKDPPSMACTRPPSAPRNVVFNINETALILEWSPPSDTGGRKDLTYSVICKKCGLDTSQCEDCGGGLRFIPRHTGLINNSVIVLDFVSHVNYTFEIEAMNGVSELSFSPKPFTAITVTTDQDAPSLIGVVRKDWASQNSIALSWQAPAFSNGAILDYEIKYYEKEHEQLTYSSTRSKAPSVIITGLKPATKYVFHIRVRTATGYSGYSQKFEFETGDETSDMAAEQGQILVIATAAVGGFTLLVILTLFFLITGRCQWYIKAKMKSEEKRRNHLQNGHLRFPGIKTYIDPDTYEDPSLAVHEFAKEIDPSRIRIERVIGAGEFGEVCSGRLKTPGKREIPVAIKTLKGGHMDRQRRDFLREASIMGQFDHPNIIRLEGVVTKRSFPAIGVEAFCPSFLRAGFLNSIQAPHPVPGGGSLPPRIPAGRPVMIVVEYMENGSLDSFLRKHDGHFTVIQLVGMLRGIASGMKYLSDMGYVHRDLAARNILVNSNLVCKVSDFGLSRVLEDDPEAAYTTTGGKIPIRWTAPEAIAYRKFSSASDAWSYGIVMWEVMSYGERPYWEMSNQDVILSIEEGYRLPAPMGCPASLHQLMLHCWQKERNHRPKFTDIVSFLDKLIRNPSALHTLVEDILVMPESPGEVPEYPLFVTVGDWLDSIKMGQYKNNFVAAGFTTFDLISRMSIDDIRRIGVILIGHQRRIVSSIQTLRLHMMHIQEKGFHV
Chain of MAPK14 (human) (Q16539 whole entry, looked up): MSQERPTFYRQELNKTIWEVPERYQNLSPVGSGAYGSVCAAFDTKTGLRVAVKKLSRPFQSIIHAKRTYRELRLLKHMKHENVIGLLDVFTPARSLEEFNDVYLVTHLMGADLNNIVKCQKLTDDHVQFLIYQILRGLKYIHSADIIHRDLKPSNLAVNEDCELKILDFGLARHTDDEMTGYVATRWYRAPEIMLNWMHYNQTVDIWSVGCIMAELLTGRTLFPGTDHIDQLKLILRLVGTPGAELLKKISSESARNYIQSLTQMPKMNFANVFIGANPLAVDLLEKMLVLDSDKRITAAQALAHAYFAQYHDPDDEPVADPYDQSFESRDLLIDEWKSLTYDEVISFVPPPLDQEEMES
Chain of MLTK (human) (Q9NYL2 whole entry, looked up): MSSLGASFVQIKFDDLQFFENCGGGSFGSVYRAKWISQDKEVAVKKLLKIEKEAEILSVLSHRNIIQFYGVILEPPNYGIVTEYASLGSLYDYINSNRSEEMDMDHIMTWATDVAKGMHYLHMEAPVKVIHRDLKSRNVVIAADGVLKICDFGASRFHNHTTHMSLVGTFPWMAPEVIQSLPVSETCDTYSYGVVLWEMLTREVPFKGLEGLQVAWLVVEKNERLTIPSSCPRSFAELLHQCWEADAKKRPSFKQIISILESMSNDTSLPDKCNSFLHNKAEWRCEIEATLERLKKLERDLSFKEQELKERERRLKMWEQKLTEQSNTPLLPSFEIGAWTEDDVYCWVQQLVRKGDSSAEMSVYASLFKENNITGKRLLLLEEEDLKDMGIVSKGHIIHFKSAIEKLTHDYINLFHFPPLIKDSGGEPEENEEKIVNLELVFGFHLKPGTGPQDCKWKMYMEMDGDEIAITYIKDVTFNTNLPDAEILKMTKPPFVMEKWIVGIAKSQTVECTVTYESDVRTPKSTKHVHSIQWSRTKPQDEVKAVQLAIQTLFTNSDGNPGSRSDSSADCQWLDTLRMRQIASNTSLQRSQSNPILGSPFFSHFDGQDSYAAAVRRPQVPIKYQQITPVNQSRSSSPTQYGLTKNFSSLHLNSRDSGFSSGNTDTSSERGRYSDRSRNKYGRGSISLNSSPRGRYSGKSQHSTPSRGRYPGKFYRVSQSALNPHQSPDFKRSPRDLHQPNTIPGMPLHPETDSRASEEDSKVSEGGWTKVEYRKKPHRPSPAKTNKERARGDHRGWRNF
Chain of MAPK12 (human) (P53778 whole entry, looked up): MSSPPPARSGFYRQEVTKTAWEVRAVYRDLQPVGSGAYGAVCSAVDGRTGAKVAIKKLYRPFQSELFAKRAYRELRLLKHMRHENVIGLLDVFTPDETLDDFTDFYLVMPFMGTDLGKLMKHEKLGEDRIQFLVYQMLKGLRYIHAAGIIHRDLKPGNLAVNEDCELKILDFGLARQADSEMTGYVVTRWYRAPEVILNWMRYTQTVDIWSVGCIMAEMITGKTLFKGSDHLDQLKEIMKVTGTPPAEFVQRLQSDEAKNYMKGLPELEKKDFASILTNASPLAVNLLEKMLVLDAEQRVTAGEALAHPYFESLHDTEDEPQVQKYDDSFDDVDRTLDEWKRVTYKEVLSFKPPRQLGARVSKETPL
Chain of CAMK1D (human) (Q8IU85 whole entry, looked up): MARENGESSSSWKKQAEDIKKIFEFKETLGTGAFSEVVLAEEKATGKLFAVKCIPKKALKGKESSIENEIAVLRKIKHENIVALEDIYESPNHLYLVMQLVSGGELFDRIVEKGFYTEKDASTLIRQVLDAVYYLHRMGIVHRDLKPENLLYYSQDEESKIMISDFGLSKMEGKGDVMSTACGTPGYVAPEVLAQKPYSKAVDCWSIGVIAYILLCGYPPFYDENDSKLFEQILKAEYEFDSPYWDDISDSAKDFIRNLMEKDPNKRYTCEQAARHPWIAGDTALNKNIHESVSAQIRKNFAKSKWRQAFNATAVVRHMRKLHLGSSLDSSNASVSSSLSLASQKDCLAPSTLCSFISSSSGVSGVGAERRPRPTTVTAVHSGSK

## CCOc1cc(N2CCC(N3CCCCC3)CC2)ccc1Nc1nc(Nc2ccccc2S(=O)(=O)C(C)C)c2cn[nH]c2n1
MAPK12 (human)
  kinase still bound, per cent of control: 100%
PIK3CG (human)
  kinase still bound, per cent of control: 100%
[1]
  kinase still bound, per cent of control: 100%
WEE2 (human)
  kinase still bound, per cent of control: 100%
EGFR (human)
  kinase still bound, per cent of control: 4.1%
FGFR3 (human)
  kinase still bound, per cent of control: 94%
CDK8 (human)
  kinase still bound, per cent of control: 100%
TLK2 (human)
  kinase still bound, per cent of control: 100%
CHEK2 (human)
  kinase still bound, per cent of control: 23%
LYN (human)
  kinase still bound, per cent of control: 100%
CAMK2A (human)
  kinase still bound, per cent of control: 34%
[2]
  kinase still bound, per cent of control: 100%
MAPK14 (human)
  kinase still bound, per cent of control: 98%
TNK1 (human)
  kinase still bound, per cent of control: 2.4%
BMPR2 (human)
  kinase still bound, per cent of control: 85%
NEK5 (human)
  kinase still bound, per cent of control: 100%
TESK1 (human)
  kinase still bound, per cent of control: 100%
FER (human)
  kinase still bound, per cent of control: 9.1%
MLTK (human)
  kinase still bound, per cent of control: 100%
TGFBR1 (human)
  kinase still bound, per cent of control: 95%
MAP4K2 (human)
  kinase still bound, per cent of control: 97%
CAMK1D (human)
  kinase still bound, per cent of control: 1%
EPHA6 (human)
  kinase still bound, per cent of control: 100%
FES (human)
  IC50: 58 µM
FES (human); compound 10.0 µM
  kinase still bound, per cent of control: 3.6%
MUSK (human)
  kinase still bound, per cent of control: 100%
TGFBR2 (human)
  kinase still bound, per cent of control: 100%
IKBKB (human)
  kinase still bound, per cent of control: 100%
PAK4 (human)
  kinase still bound, per cent of control: 85%
[3]
  kinase still bound, per cent of control: 53%
MKNK2 (human)
  kinase still bound, per cent of control: 100%
NEK7 (human)
  kinase still bound, per cent of control: 100%
PRKD1 (human)
  kinase still bound, per cent of control: 73%
INSR (human)
  kinase still bound, per cent of control: 0.3%
ROS1 (human)
  kinase still bound, per cent of control: 5.8%
[4]
  kinase still bound, per cent of control: 74%
MAPK4 (human)
  kinase still bound, per cent of control: 100%
LCK (human)
  kinase still bound, per cent of control: 84%
MAP3K3 (human)
  kinase still bound, per cent of control: 69%
MST4 (human)
  kinase still bound, per cent of control: 100%
SRPK2 (human)
  kinase still bound, per cent of control: 100%
LIMK1 (human)
  kinase still bound, per cent of control: 100%
[5]
  kinase still bound, per cent of control: 19%
